Reference: ChEMBL document CHEMBL1201862, “PubChem BioAssay data set” (2004)
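Tested at 5 concentrations; 48 h exposure; 96-well plates; endpoints linearly interpolated, else capped at highest concentration. At the GI50, growth is halved.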 The source made the active and inactive calls. Cut-off read from the data, not from the text of the source: active = GI50 up to about 1.1 µM and inactive = higher.

Assays:
Test in all cases: growth of human tumour cells (NCI), 48 h
KM12 = test system: KM12
HCT-15 = test system: HCT-15
NCI-H226 = test system: NCI-H226
OVCAR-8 = test system: OVCAR-8
U-251 = test system: U-251
HT-29 = test system: HT-29
Hs-578T = test system: Hs-578T
Malme-3M = test system: Malme-3M
HOP-62 = test system: HOP-62
RPMI-8226 = test system: RPMI-8226
MOLT-4 = test system: MOLT-4
SNB-19 = test system: SNB-19
SW-620 = test system: SW-620
COLO 205 = test system: COLO 205
HL-60 = test system: HL-60
NCI/ADR-RES = test system: NCI/ADR-RES
PC-3 = test system: PC-3
DU-145 = test system: DU-145
HCT-116 = test system: HCT-116
DLD-1 = test system: DLD-1

Row | Compound | GI50 (KM12) | GI50 (HCT-15) [µM] | GI50 (NCI-H226) | GI50 (OVCAR-8) | GI50 (U-251) | GI50 (HT-29) | GI50 (Hs-578T) | GI50 (Malme-3M) | GI50 (HOP-62) | GI50 (RPMI-8226) | GI50 (MOLT-4) | GI50 (SNB-19) | GI50 (SW-620) | GI50 (COLO 205) | GI50 (HL-60) | GI50 (NCI/ADR-RES) | GI50 (PC-3) | GI50 (DU-145) | GI50 (HCT-116) | GI50 (DLD-1)
1 | COc1cc(C2c3cc4c(cc3OC(C)(N3CCCC3)C2C)OCO4)cc(OC)c1OC (stereo unspecified) | 0.286 µM (active) | 0.472 | 0.313 µM (active) | 0.472 µM (active) | 0.385 µM (active) | 0.293 µM (active) | 0.273 µM (active) | 0.343 µM (active) | 0.301 µM (active) | 0.337 µM (active) | 0.3 µM (active) | 0.391 µM (active) | 0.153 µM (active) | 0.22 µM (active) | 0.182 µM (active) | 0.192 µM (active) | 0.34 µM (active) | 0.327 µM (active) | 0.433 µM (active) | –
2 | COc1ccc2[nH]c3c(C)c4ccnc(NCCCN(C)CCCNc5ccc([N+](=O)[O-])c6[nH]c7ccccc7c(=O)c56)c4c(C)c3c2c1 | 0.301 µM (active) | 0.0295 | 0.421 µM (active) | 0.472 µM (active) | 0.0887 µM (active) | 0.00813 µM (active) | 0.604 µM (active) | 0.285 µM (active) | 0.239 µM (active) | 0.0826 µM (active) | 0.005 µM (active) | 0.284 µM (active) | 0.00811 µM (active) | 0.0723 µM (active) | 0.53 µM (active) | 0.592 µM (active) | 0.426 µM (active) | 0.628 µM (active) | 0.0145 µM (active) | –
3 | O=C(CC(=O)C(=O)CC(=O)OCc1ccccc1)OCc1ccccc1 | – | > 100 | – | > 100 µM (inactive) | 50.9 µM (inactive) | > 100 µM (inactive) | – | > 100 µM (inactive) | 56.2 µM (inactive) | 45.8 µM (inactive) | 64.3 µM (inactive) | 43.4 µM (inactive) | 88.9 µM (inactive) | > 100 µM (inactive) | 63.4 µM (inactive) | – | – | – | 44.6 µM (inactive) | 60.8 µM (inactive)
4 | CCCCCCCCCc1c(Cl)nc(Cl)nc1Cl | 32.7 µM (inactive) | 12.3 | 5.62 µM (inactive) | 16.1 µM (inactive) | 18.9 µM (inactive) | 17.5 µM (inactive) | 29.2 µM (inactive) | 10.8 µM (inactive) | 22.5 µM (inactive) | 14.6 µM (inactive) | 1.96 µM (inactive) | 16.2 µM (inactive) | 10.1 µM (inactive) | 19.5 µM (inactive) | 5.05 µM (inactive) | 18.8 µM (inactive) | 15.7 µM (inactive) | 17.3 µM (inactive) | 14.5 µM (inactive) | –
5 | COc1cc(OC)c2c(=O)cc(-c3ccccc3F)[nH]c2c1 | 32.9 µM (inactive) | 28.6 | 23.7 µM (inactive) | 51.4 µM (inactive) | 35.8 µM (inactive) | 38.2 µM (inactive) | > 100 µM (inactive) | > 100 µM (inactive) | 82.6 µM (inactive) | 57.8 µM (inactive) | 66.2 µM (inactive) | 26 µM (inactive) | 59.3 µM (inactive) | 75.9 µM (inactive) | > 100 µM (inactive) | 35.3 µM (inactive) | 47.2 µM (inactive) | 76.4 µM (inactive) | 38.3 µM (inactive) | –
6 | O=C(CC(=O)N1N=C(N2c3ccccc3Sc3ccccc32)CC1c1ccccc1)Nc1ccc(Cl)cc1 (stereo unspecified) | > 100 µM (inactive) | > 100 | – | > 100 µM (inactive) | > 100 µM (inactive) | > 100 µM (inactive) | – | > 100 µM (inactive) | > 100 µM (inactive) | – | – | > 100 µM (inactive) | > 100 µM (inactive) | > 100 µM (inactive) | > 10 µM (inactive) | – | – | – | > 100 µM (inactive) | > 100 µM (inactive)
7 | c1ccc(/N=c2/[nH]c3ccccc3s/c2=N/c2ccccc2)cc1 | 73.8 µM (inactive) | > 100 | > 100 µM (inactive) | > 100 µM (inactive) | > 100 µM (inactive) | 82 µM (inactive) | > 100 µM (inactive) | > 100 µM (inactive) | > 100 µM (inactive) | > 100 µM (inactive) | > 100 µM (inactive) | > 100 µM (inactive) | > 100 µM (inactive) | > 100 µM (inactive) | > 100 µM (inactive) | > 100 µM (inactive) | > 100 µM (inactive) | > 100 µM (inactive) | > 100 µM (inactive) | –
8 | COc1cc(C2CC(C)(Nc3ccccc3)Oc3cc4c(cc32)OCO4)cc(OC)c1OC (stereo unspecified) | 0.19 µM (active) | 0.161 | 0.855 µM (active) | 0.483 µM (active) | 0.279 µM (active) | 0.182 µM (active) | 0.105 µM (active) | 3.29 µM (inactive) | 0.192 µM (active) | 0.263 µM (active) | 0.535 µM (active) | 0.736 µM (active) | 0.234 µM (active) | 0.839 µM (active) | 0.0906 µM (active) | 0.277 µM (active) | 0.251 µM (active) | 0.352 µM (active) | 0.23 µM (active) | –
